The source of these data is patent US10119097B2, “Organic compounds” (GIVAUDAN SA, priority 2014, dated 2018).

The test system of data set [1] is rat hepatocytes. Briefly: in vitro metabolism in rat hepatocytes in suspension, benzoic acid derivative formation by GC-MS. The note with it: incubated with hepatocytes isolated from rats; substantially no = below the limit of detection, i.e. <1%. It is filed as in vitro ADME. From the text: Decrease of Lilial™ and the compound released by the precursor of the present invention, and formation of the corresponding benzoic acid derivative may be analysed by GC-MS.
By “substantially no benzoic acid derivative” is meant that the concentration of said derivative is below the limit of detection, i.e. <1%. As such, the fragrance precursor releasing 3-(4-isobutyl-2-methylphenyl)propanal provides perfumers with an eminently suitable surrogate for the valuable yet problematic Lilial™.

The subject of data set [2] is guinea-pigs. The note with it: guinea pig, in vivo; cited from earlier work.
For data set [3], the system named is mice. The settings on record: mouse, in vivo; cited from earlier work.
Data set [4] concerns primates. The note with it: cited from earlier work.

Each structure is given as a SMILES string.

As for `Cc1cc(CC(C)C)ccc1CCC=O` [3-(4-isobutyl-2-methylphenyl)propanal], the “formation of the corresponding benzoic acid derivative” value in data set [1] is “forms no, or substantially no, corresponding benzoic acid derivative”.
`CC(C=O)Cc1ccc(C(C)(C)C)cc1` (stereo not shown) [Lilial™, 3-(4-tert-butylphenyl)-2-methylpropanal]: the toxic effects entry in data set [2], in data set [3] and in data set [4] was “No effects were found” throughout.
